Source: patent US12569453B2, “Use of tapinarof for the treatment of atopic dermatitis” (Dermavant Sciences GmbH, priority 2018, dated 2026)

System: adolescent and adult subjects with AD
Experiment: Phase II clinical study in AD: efficacy and subject-reported outcomes
Assay type: in vivo, human
Details: for itch reduction in weekly average NRS (median): Week 4; for probability of achieving EASI75 / probability of achieving IGA treatment success: model; for patients with 75% improvement in EASI score: post-hoc analysis
From the text: This was a multicenter (United States, Canada, and Japan), randomized, double-blind (Sponsor-unblind), vehicle-controlled, 6-arm, parallel-group, dose-finding study in adolescent and adult subjects with AD.
The study consisted of 3 periods: up to 4 weeks screening, 12 weeks double-blind treatment, and 4 weeks post-treatment Follow-up. Study visits occurred at Screening; Baseline; Weeks 1, 2, 4, 8, and 12 during the treatment period; and 2 and 4 weeks after the last application of study treatment (i.e., at Weeks 14 and 16). Additional visits could occur, as needed, to follow-up on any skin reactions or ongoing AEs. A subject's total duration of study participation was approximately 16 to 20 weeks.
Two concentrations of Tapinarof cream (0.5% and 1%) and a vehicle control were evaluated following application to all AD lesions (except on the scalp) once or twice daily for 12 weeks. There were no planned dose adjustments during the study. It was expected that approximately 270 adolescent and adult subjects with AD would be screened to achieve 228 randomized subjects (1:1:1:1:1:1; N=3 8 for each of the 6 treatment groups) and approximately 204 evaluable subjects overall. At least 30 subjects were to be randomized in Japan to achieve at least 24 evaluable Japanese subjects. To ensure an adequate number of adolescents (aged 12 to 17 years) versus adults were represented in the overall study population, enrollment was limited to approximately 65% of either age group.
Efficacy was assessed by using a 5-point static Investigator Global Assessment (IGA) (0-4 scale), the Eczema Area and Severity Index (EASI), percent of body surface area (% BSA) involvement, severity of AD signs using a Total Severity Score (TSS), and by subject-reported itch/pruritus severity using a numeric rating scale (NRS) (from the Daily Sign and Symptom Severity Diary). Additional subject-reported outcomes included the expanded Patient-Oriented Eczema Measure (POEM), a Daily Sign and Symptom Severity Diary, and subject impression of severity of eczema symptoms and overall change in severity of eczema symptoms and overall change in itch/pruritus items. There was also an investigator global impression of change item.
Investigator's Global Assessment: The IGA is a clinical tool for assessing the current state/severity of a subject's AD. It is a static 5-point morphological assessment of overall disease severity, as determined by the investigator, using the clinical characteristics of erythema, infiltration, papulation, oozing, and crusting as guidelines. At each specified time point, the IGA was made without reference to previous scores. Scoring system ranges from 0 (=Clear) to 4 (=Severe).
Eczema Area and Severity Index: The EASI scoring system is a standard clinical tool for assessing the severity of AD that takes into account the overall severity of erythema, infiltration/papulation, excoriation, and lichenification, as well as the extent of BSA affected with AD. The 4 clinical signs are each graded on a 4-point scale (0 to 3) for each of the 4 specified body regions (head and neck, upper extremities, lower extremities, and trunk). The EASI is a static assessment made without reference to previous scores.
Body Surface Area: The extent of BSA affected by AD is a general indicator of disease severity and was measured throughout the study. The extent of BSA to which study treatment was applied was also recorded. For the purpose of approximate clinical estimation, the total palmar surface of the palm plus 5 digits was assumed to be approximately equivalent to 1% BSA.
Total Severity Score: A single target lesion that measured at least 3 cm at Screening and Baseline and was representative of subject disease, but not located on hands, feet or genitalia, was selected at Baseline to assess efficacy in treating a discrete area rather than an overall average of all areas. […]

[1] = 0.5% BID, Week 8, interim analysis
[2] = 0.5% QD, Week 8, interim analysis
[3] = 1% BID, Week 8, interim analysis
[4] = 1% QD, Week 8, interim analysis

Q: How did the “EASI75 responders who maintained response from Week 12 to Week 16” value (0.5% BID) turn out when `CC(C)c1c(O)cc(/C=C/c2ccccc2)cc1O` [Tapinarof, 3,5-Dihydroxy-4-isopropyl-trans-stilbene] was run?
A: Its value is 82%.

Q: What about the “difference in probability of achieving EASI75 vs vehicle” value (0.5% BID) of the same compound?
A: Its value is 42.6%.

Q: And the “itch reduction in weekly average NRS (median)” value (“itch reduction” for short) (0.5% BID, interim analysis)?
A: The value was −53.00%.

Q: What about the “IGA response rate (IGA 0 or 1 and ≥2-grade improvement)” value (“IGA response rate” for short) [1] of the same compound?
A: Its value is 35%.

Q: And the “subjects with 75% reduction in EASI from Baseline” value (shortened to “subjects with 75% reduction”) [1]?
A: The value was 59%.

Q: What about the “difference in probability of IGA response vs vehicle” value (0.5% BID, Week 12) of the same compound?
A: Its value is 22.4%.

Q: And the “expanded POEM item 8 (nights woken because of eczema), mean change” value (0.5% BID, Week 12)?
A: Its value is −1.3.

Q: What about the “patients with minimum three-point improvement in itch NRS” value (from here on “patients … in itch NRS”) (0.5% BID, Week 12) of the same compound?
A: The value was 33%.

Q: And the “subjects reporting severity of AD symptoms as very improved” value (“subjects reporting severity” for short) (0.5% BID, Week 12)?
A: Its value is 47%.

Q: And the “IGA response rate” value (0.5% BID, Week 12, NRI)?
A: Its value is 37%.

Q: And the “probability of achieving EASI75” value (0.5% BID, Week 12)?
A: The value was 54.2%.

Q: And the “probability of achieving IGA treatment success” value (0.5% BID, Week 12)?
A: The value was 28.7%.

Q: And the “difference in probability of achieving EASI75 vs vehicle” value (0.5% QD)?
A: The value was 28.9%.

Q: What about the “itch reduction” value (0.5% QD, interim analysis) of the same compound?
A: Its value is −53.57%.

Q: And the “IGA response rate” value [2]?
A: The value was 40%.

Q: And the “subjects with 75% reduction” value [2]?
A: The value was 35%.

Q: What about the “difference in probability of IGA response vs vehicle” value (0.5% QD, Week 12) of the same compound?
A: Its value is 15.7%.

Q: And the “expanded POEM item 8 (nights woken because of eczema), mean change” value (0.5% QD, Week 12)?
A: Its value is −1.2.

Q: What about the “patients … in itch NRS” value (0.5% QD, Week 12) of the same compound?
A: The value was 29%.

Q: And the “subjects reporting severity” value (0.5% QD, Week 12)?
A: Its value is 40%.

Q: And the “IGA response rate” value (0.5% QD, Week 12, NRI)?
A: Its value is 34%.

Q: And the “probability of achieving EASI75” value (0.5% QD, Week 12)?
A: The value was 32.6%.

Q: And the “probability of achieving IGA treatment success” value (0.5% QD, Week 12)?
A: Its value is 18.3%.

Q: And the “proportion of subjects with IGA treatment success” value (0.5% QD, Week 12, primary analysis)?
A: The value was 40%.

Q: What about the “subjects rating pruritus symptoms very improved or moderately improved” value (0.5% groups, Week 12) of the same compound?
A: Its value is 80-81%.

Q: What about the “EASI75 responders who maintained response from Week 12 to Week 16” value (1% BID) of the same compound?
A: The value was 63%.

Q: What about the “difference in probability of achieving EASI75 vs vehicle” value (1% BID) of the same compound?
A: Its value is 74.5%.

Q: And the “itch reduction” value (1% BID, interim analysis)?
A: Its value is −56.35%.

Q: And the “IGA response rate” value [3]?
A: Its value is 35%.

Q: What about the “subjects with 75% reduction” value [3] of the same compound?
A: The value was 45%.

Q: What about the “absolute change in percent BSA affected from baseline (mean)” value (1% BID, Week 12) of the same compound?
A: Its value is 11.2.

Q: What about the “difference in probability of IGA response vs vehicle” value (1% BID, Week 12) of the same compound?
A: The value was 61.5%.

Q: What about the “patients rating itch moderately improved to very improved” value (1% BID, Week 12) of the same compound?
A: The value was 78%.

Q: What about the “patients … in itch NRS” value (1% BID, Week 12) of the same compound?
A: Its value is 30%.

Q: What about the “reduction in total severity score (mean change)” value (1% BID, Week 12) of the same compound?
A: The value was 5.8.

Q: And the “subjects reporting severity” value (1% BID, Week 12)?
A: Its value is 64%.

Q: What about the “IGA response rate” value (1% BID, Week 12, NRI) of the same compound?
A: The value was 53%.

Q: And the “probability of achieving EASI75” value (1% BID, Week 12)?
A: The value was 86.0%.

Q: What about the “probability of achieving IGA treatment success” value (1% BID, Week 12) of the same compound?
A: Its value is 67.7%.

Q: And the “patients with 75% improvement in EASI score” value (1% BID, Week 12)?
A: Its value is 60%.

Q: And the “EASI75 responders who maintained response from Week 12 to Week 16” value (1% QD)?
A: Its value is 57%.

Q: What about the “difference in probability of achieving EASI75 vs vehicle” value (1% QD) of the same compound?
A: The value was 77.0%.

Q: What about the “itch reduction” value (1% QD, interim analysis) of the same compound?
A: Its value is −57.14%.

Q: And the “IGA response rate” value [4]?
A: Its value is 74%.

Q: What about the “subjects with 75% reduction” value [4] of the same compound?
A: The value was 63%.

Q: And the “absolute change in percent BSA affected from baseline (mean)” value (1% QD, Week 12)?
A: Its value is 11.6.

Q: And the “difference in probability of IGA response vs vehicle” value (1% QD, Week 12)?
A: Its value is 60.1%.

Q: What about the “patients rating itch moderately improved to very improved” value (1% QD, Week 12) of the same compound?
A: Its value is 86%.

Q: What about the “patients … in itch NRS” value (1% QD, Week 12) of the same compound?
A: Its value is 32%.

Q: And the “reduction in total severity score (mean change)” value (1% QD, Week 12)?
A: Its value is 5.5.

Q: And the “subjects reporting severity” value (1% QD, Week 12)?
A: The value was 59%.

Q: And the “IGA response rate” value (1% QD, Week 12, NRI)?
A: The value was 46%.

Q: And the “probability of achieving EASI75” value (1% QD, Week 12)?
A: The value was 80.7%.

Q: And the “probability of achieving IGA treatment success” value (1% QD, Week 12)?
A: The value was 62.6%.

Q: And the patients with 75% improvement in EASI score (1% QD, Week 12)?
A: Its patients with 75% improvement in EASI score is 51%.

Q: And the “subjects rating pruritus symptoms very improved or moderately improved” value (1% groups, Week 12)?
A: Its value is 78-87%.

Q: And the “subjects with minimum 3-point improvement in itch/pruritus” value (Japanese population, 1% QD, Week 4 to Week 12)?
A: Its value is “approximately 70%”.

Q: What about the “subjects rating severity of itch very improved or moderately improved” value (Tapinarof groups, Week 12) of the same compound?
A: Its value is ≥ 78%.

Q: And the “subjects rating severity of eczema symptoms very improved or moderately improved” value (active treatment groups, Week 12)?
A: The value was > 80%.

Q: What about the “subjects rated by investigators as very improved or moderately improved” value (adolescent population, active treatment groups) of the same compound?
A: Its value is ≥ 90%.
